Measurements as given in PMC12084349 (Communications Biology, 2025).

Tests used:
Hsp90-NTD = Hsp90-NTD (Homo sapiens, UniProt P07900); assay: [1H, […]] HSQC NMR titration; format: binding
Aha1 = Aha1 (Homo sapiens, UniProt O95433); assay: ITC; format: binding
Chain of Aha1 (O95433 204-338): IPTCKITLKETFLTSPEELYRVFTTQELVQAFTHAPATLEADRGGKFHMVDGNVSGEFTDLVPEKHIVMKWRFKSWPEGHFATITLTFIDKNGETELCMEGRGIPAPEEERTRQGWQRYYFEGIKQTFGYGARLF

- Kd (Hsp90-NTD): 15.1 ± 3.86 µM
- Kd (Aha1): 0.84 ± 0.35 µM
Compound: CCc1oc2ccccc2c1C(=O)c1cc(Br)c(O)c(Br)c1 [Benzbromarone]
